# Assay results taken from US4563463A, “2-Oxo-1,3-oxazolo[4,5-h] quinolines useful as anti-allergy agents” (priority 1984, dated 1986).
# pIC50: −log10 of the molar value. Where two headings read alike, the source gives them in different places.
# How the values were obtained:
# [1] = system: passively sensitized Rat Mast Cells; assay: Rat Mast Cell (RMC) test: inhibition of histamine release from passively sensitized Rat Mast Cells; type: cell-based; settings: for pIC50: Mast cell, histamine release, passively sensitized rat mast cells, read-out: I50 value in the RMC test; for RMC % inh.: at 50 μm (number in parentheses)
# Source text: In addition, the compounds of this invention have potent activity as inhibitors of histamine release from passively sensitized Rat Mast Cells according to the porcedure described by E. Kusner, et al., Journal of Pharmacology and Experimental Therapeutics, 184, 41 (1973).
# [2] = system: Rat Passive Cutaneous Anaphylaxis; assay: Rat Passive Cutaneous Anaphylaxis (PCA) Screen: inhibition of wheal formation; type: in vivo; settings: for ED50: Rattus norvegicus; for inhibition of wheal formation in the PCA test: 10 mg/kg, intraperitoneal
# Source text: The compounds of this invention have potent activity in inhibiting the formation of a wheel when screened according to the Rat Passive Cutaneous Anaphylaxis (PCA) Screen as described by I. Mota, Life Sciences, 7, 465 (1963) and Z. Ovary, et al. Proceedings of Society of Experimental Biology and Medicine, 81, 584 (1952).
# [3] = PO, 25 mg/kg (number in parentheses)
# [4] = PO, 125 mg/kg (number in parentheses)
smiles,measurement,setting,value
"COC(=O)c1nc2cc(Cl)c3cccnc3c2o1 [Example 1C, 2-Carbomethoxy-5-chloro-1,3-oxazolo-[4,5-h]quinoline]",pIC50,[1],6.52
same,ED50,"[2]; ip, intraperitoneal route, read-out: E50 value in PCA test",0.5 mg/kg
same,ED50,"[2]; oral route, read-out: E50 value in PCA test",1 mg/kg
"CCOC(=O)c1nc2cc(Cl)c3cccnc3c2o1 [Example 4, 2-carboethoxy-5-chloro-1,3-oxazolo-[4,5-h]quinoline]",pIC50,[1],7.00
same,inhibition of wheal formation in the PCA test,[2],59%
"O=C([O-])c1nc2cc(Cl)c3cccnc3c2o1.[Na+] [Example 14, 5-chloro-1,3-oxazolo-[4,5-h]quinoline-2-carboxylate, sodium salt]",pIC50,[1],7.00
same,inhibition of wheal formation in the PCA test,[2],51%
"O=c1[nH]c2ccc3cccnc3c2o1 [Example 18, 2-Oxo-3H-oxazolo[4,5-h]quinoline]",RMC % inh.,[1],< 30%
same,ED50,"[2]; IP, Table I, read-out: PCA ED50 IP",10 mg/kg
same,ED50,"[2]; PO, Table I, read-out: PCA ED50 PO",4 mg/kg
O=c1[nH]c2cc(Cl)c3cccnc3c2o1 [Example 19],PCA % inh. PO,[2]; [3],0%
"CC(=O)n1c(=O)oc2c3ncccc3ccc21 [Example 20, 3-Acetyl-2-oxo-3H-oxazolo[4,5-h]quinoline]",RMC % inh.,[1],18%
same,PCA % inh. PO,[2]; [4],14%
COc1cccc(C(=O)n2c(=O)oc3c4ncccc4c(Cl)cc32)c1 [Example 22],PCA % inh. PO,"[2]; PO, 100 mg/kg (number in parentheses)",43%
CC(C(=O)n1c(=O)oc2c3ncccc3c(Cl)cc21)c1ccccc1 (centres unmarked) [Example 23],RMC % inh.,[1],16%
same,PCA % inh. IP,"[2]; IP, 125 mg/kg (number in parentheses)",34%
CN(C)C(=O)n1c(=O)oc2c3ncccc3c(Cl)cc21 [Example 24],RMC % inh.,[1],18%
same,PCA % inh. PO,[2]; [3],0%
"Cn1c(=O)oc2c3ncccc3c(Cl)cc21 [Example 25, 5-Chloro-3-methyl-2-oxo-3H-oxazolo[4,5-h]quinoline]",RMC % inh.,[1],0%
same,PCA % inh. PO,[2]; [4],51%
